Several values for one entry are separate records, joined by “and”; a condition that tells them apart may be missing. Identical values can stand only once. Toxic doses and inconclusive results are not listed.
System: L1210 leukemia ip in BDF1 mice, survival T/C
Experiment: NCI In Vivo Anticancer Drug Screen. Data for tumor model L1210 Leukemia (intraperitoneal) in B6D2F1 (BDF1) mice
Details: endpoint: mean survival time, higher = longer survival
In short: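 In this screen, tumor-bearing mice given compound are compared to those given vehicle, and their survival values are reported as a treated-to-control quotient.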

In the case of `NC(=S)N/N=C/c1ccc(O)cn1`, the T/C (dose: 3.13 mg/kg/injection, schedule: Q03HX024 (ip), vehicle: Klucel (hydroxypropylcellulose) (HPC)) is reported as 120 % of control, the T/C (dose: 3.13 mg/kg/injection, schedule: Q03HX024 (ip), vehicle: other) is reported as 120 % of control and the T/C (dose: 3.13 mg/kg/injection, schedule: Q03HX024 (ip), vehicle: saline) is reported as 113 % of control. For the same compound, the T/C (dose: 6.25 mg/kg/injection, schedule: Q03HX024 (ip), vehicle: other) was 106 % of control, the T/C (dose: 9.5 mg/kg/injection, schedule: Q01DX005 (iv), vehicle: other) was 104 % of control and the T/C (dose: 11.0 mg/kg/injection, schedule: Q03HX032 (ip), vehicle: saline with Tween-80) was 123 % of control. For the same compound, the T/C (dose: 12.5 mg/kg/injection, schedule: Q03HX024 (ip), vehicle: other) was 106 % of control, the T/C (dose: 12.5 mg/kg/injection, schedule: Q03HX024 (ip), vehicle: saline) was 159 % of control and the T/C (dose: 19.0 mg/kg/injection, schedule: Q01DX005 (iv), vehicle: other) was 111 % of control. For the same compound, the T/C (dose: 25.0 mg/kg/injection, schedule: Q01DX015 (ip), vehicle: carboxymethylcellulose (CMC)) was 158 % of control, the T/C (dose: 33.0 mg/kg/injection, schedule: Q## X008 (ip), vehicle: other) was 124 % of control and the T/C (dose: 33.0 mg/kg/injection, schedule: Q## X016 (ip), vehicle: other) was 122 % of control. For the same compound, the T/C (dose: 37.5 mg/kg/injection, schedule: Q01DX005 (ip), vehicle: other) was 159 % of control, the T/C (dose: 40.0 mg/kg/injection, schedule: Q06HX016 (ip), vehicle: Klucel (hydroxypropylcellulose) (HPC)) was 154 % of control and the T/C (dose: 44.0 mg/kg/injection, schedule: Q03HX032 (ip), vehicle: saline with Tween-80) was 159 % of control. The T/C (dose: 50.0 mg/kg/injection, schedule: Q01DX001 (ip), vehicle: saline) was 114 % of control, the T/C (dose: 50.0 mg/kg/injection, schedule: Q01DX009 (oral), vehicle: carboxymethylcellulose (CMC)) was 120 % of control and the T/C (dose: 50.0 mg/kg/injection, schedule: Q03HX024 (ip), vehicle: other) was 151 % of control. For the same compound, the T/C (dose: 50.0 mg/kg/injection, schedule: Q03HX024 (ip), vehicle: saline) was 151 % of control, the T/C (dose: 62.0 mg/kg/injection, schedule: Q03HX032 (ip), vehicle: carboxymethylcellulose (CMC)) was 118 % of control and the T/C (dose: 66.0 mg/kg/injection, schedule: Q03HX032 (ip), vehicle: saline with Tween-80) was 102 % of control and 116 % of control. For the same compound, the T/C (dose: 75.0 mg/kg/injection, schedule: Q03HX008 (ip), vehicle: alkali diluted with saline) was 156 % of control, the T/C (dose: 93.0 mg/kg/injection, schedule: Q03HX032 (ip), vehicle: carboxymethylcellulose (CMC)) was 96 % of control and the T/C (dose: 100.0 mg/kg/injection, schedule: Q01DX001 (ip), vehicle: saline) was 120 % of control. For the same compound, the T/C (dose: 100.0 mg/kg/injection, schedule: Q01DX001 (oral), vehicle: other) was 106 % of control, the T/C (dose: 100.0 mg/kg/injection, schedule: Q01DX009 (oral), vehicle: other) was 121 % of control and the T/C (dose: 100.0 mg/kg/injection, schedule: Q03HX024 (ip), vehicle: saline) was 104 % of control. For the same compound, the T/C (dose: 100.0 mg/kg/injection, schedule: Q04DX003 (ip), vehicle: alkali diluted with saline) was 111 % of control, the T/C (dose: 100.0 mg/kg/injection, schedule: Q## X002 (oral), vehicle: other) was 98 % of control and the T/C (dose: 100.0 mg/kg/injection, schedule: Q## X003 (oral), vehicle: other) was 108 % of control. For the same compound, the T/C (dose: 100.0 mg/kg/injection, schedule: Q## X008 (oral), vehicle: other) was 101 % of control, the T/C (dose: 100.0 mg/kg/injection, schedule: Q## X016 (oral), vehicle: other) was 97 % of control and the T/C (dose: 100.0 mg/kg/injection, schedule: Q## X024 (oral), vehicle: other) was 101 % of control. The T/C (dose: 150.0 mg/kg/injection, schedule: Q01DX001 (ip), vehicle: alkali diluted with saline) was 104 % of control, the T/C (dose: 150.0 mg/kg/injection, schedule: Q01DX001 (ip), vehicle: other) was 118 % of control and the T/C (dose: 150.0 mg/kg/injection, schedule: Q03HX024 (ip), vehicle: saline) was 152 % of control. For the same compound, the T/C (dose: 150.0 mg/kg/injection, schedule: Q08DX002 (ip), vehicle: alkali diluted with saline) was 102 % of control, the T/C (dose: 150.0 mg/kg/injection, schedule: Q## X002 (ip), vehicle: other) was 114 % of control and the T/C (dose: 150.0 mg/kg/injection, schedule: Q## X016 (ip), vehicle: other) was 153 % of control. The T/C (dose: 200.0 mg/kg/injection, schedule: Q01DX001 (oral), vehicle: other) was 103 % of control, the T/C (dose: 200.0 mg/kg/injection, schedule: Q01DX009 (ip), vehicle: saline) was 119 % of control and the T/C (dose: 200.0 mg/kg/injection, schedule: Q01DX009 (oral), vehicle: carboxymethylcellulose (CMC)) was 157 % of control. For the same compound, the T/C (dose: 200.0 mg/kg/injection, schedule: Q04DX003 (ip), vehicle: alkali diluted with saline) was 112 % of control, the T/C (dose: 200.0 mg/kg/injection, schedule: Q## X002 (oral), vehicle: other) was 104 % of control and the T/C (dose: 200.0 mg/kg/injection, schedule: Q## X003 (oral), vehicle: other) was 112 % of control.
